We go through two molecules from patent publication US20040122089A1, “Novel eicosanoid analgesics” (priority 2001, published 2004).

By Ki is commonly meant a measure of affinity in units of concentration, obtained from inhibition or displacement. For orientation: IC50 means the midpoint of a concentration-inhibition curve. A higher IC50 goes with a need for much substance. Usually ED50 stands for the midpoint of the dose-response relation. For orientation: EC50 means the midpoint of the concentration-response curve. Read a low EC50 as a more potent agent. What is called Emax is the maximal effect, on the per cent scale that the assay sets.

In one assay the target is T1, CB2 receptors (Rattus norvegicus, UniProt Q9QZN9).
T1 construct: rat spleen membranes, which contain mostly CB2 receptors; from tissue; host or cells: rat spleen membranes
T1 sequence (Q9QZN9 1-360): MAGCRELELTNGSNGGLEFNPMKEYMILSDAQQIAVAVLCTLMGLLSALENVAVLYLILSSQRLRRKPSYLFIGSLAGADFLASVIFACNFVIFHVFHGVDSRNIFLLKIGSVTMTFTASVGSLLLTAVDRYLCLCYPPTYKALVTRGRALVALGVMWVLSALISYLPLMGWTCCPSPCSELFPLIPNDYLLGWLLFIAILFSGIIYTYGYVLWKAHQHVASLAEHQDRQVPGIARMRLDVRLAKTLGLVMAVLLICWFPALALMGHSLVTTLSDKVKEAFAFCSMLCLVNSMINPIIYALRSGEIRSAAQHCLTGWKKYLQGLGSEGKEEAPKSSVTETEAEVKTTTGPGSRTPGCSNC
Briefly: CB2 binding, displacement of [3H]WIN55,212-2 from rat spleen membranes. As to the method: (§1) For CB1 receptor binding, [^3H]CP-55,940 (Kd=[…]) was incubated with P2 membranes from whole rat brains as described in Compton et al., J. Pharm. Exp. Ther. 265:218-226 (1993). Displacement curves were generated by incubating drugs with 1 nM of [^3H]CP-55,940. The assays were performed in triplicate, and the results represent the combined data from three individual experiments. A separate set of experiments were conducted in which phenylmthylsulfonylfluoride (PMSF) was added at a concentration of 100 μm in order to prevent possible metabolism of the analogs. CB2 binding assays were performed as described in Melek et al., ibid. In all cases, Ki values were calculated applying the Cheng-Prusoff equation to the IC50 values (obtained by GraphPad) for the displacement of the bound radioligand by increasing concentrations of the test compounds.
(§2) In Table 1, affinity for CB1 and CB2 receptors was measured in displacement assays carried out using rat brain or spleen membranes and [^3H]CP 55,940 or […], respectively. Potency at human VR1 was established by measuring the stimulatory activity of the compounds on the Ca^2+ intracellular concentration in HEK cells transfected with cDNA encoding the human VR1 receptor. Efficacy at VR1 was measured by expressing the effect of a maximal concentration of each compound (usually 10 μM) as percent of the maximal possible effect obtained with 4 μM ionomycin. Data are means ±SEM of at least n=3 separate determinations. *Ki was determined in the presence of PMSF.
The hydroxy analog is much less CB1 vs. CB2 selective in both series.
(Displacement assays read how much labelled ligand stays bound in the presence of the test substance.)

Assay [1] concerns anandamide membrane transporter (AMT). It counts as cell-based, rat. Conditions: [14C]AEA uptake, RBL-2H3 cells. As to the method:
(§3) The effect of compounds on the enzymatic hydrolysis of [^14C] AEA (6 μM) was studied by using membranes prepared from N18TG2 cells incubated with increasing concentrations of compounds in 50 mM Tris-HCL, pH 9, for 30 min at 37° C. [^14C] Ethanolamine produced from [^14C] AEA hydrolysis was quantified by scintillation spectroscopy and used to measure fatty acid amide hydrolase (FAAH) activity. The effect of compounds on the uptake of AEA by RBL-2H3 cells was studied with a procedure analogous to that described in Melck, ibid., and modified as described in Hilliard et al., J. Neurochem. 69:631-638 (1997). Cells were incubated with [^14C] AEA (4μM) for 5 min. at 37° C., in the presence or absence of varying concentrations of the inhibitors. Residual [1^4C] AEA in the incubation media after extraction with CHCl3/CH30H (2:1 by volume) was used as a measure of the AEA that was taken up by cells.
In consideration of the potent inhibition of the AMT previously observed with arvanil and its derivatives (see Melck, ibid), the seven compounds were also tested for their inhibitory effect on [^4C] […] Thus, the results in Table 1 confirm the existence of a partial overlap between the ligand recognition properties of VR1 receptors and the AMT (14.24).

Assay [2] addresses T2, fatty acid amide hydrolase (FAAH) (Mus musculus, UniProt O08914).
T2 construct: membranes prepared from N18TG2 cells; endogenous in cells; host or cells: N18TG2 cell membranes
T2 sequence (O08914 1-579): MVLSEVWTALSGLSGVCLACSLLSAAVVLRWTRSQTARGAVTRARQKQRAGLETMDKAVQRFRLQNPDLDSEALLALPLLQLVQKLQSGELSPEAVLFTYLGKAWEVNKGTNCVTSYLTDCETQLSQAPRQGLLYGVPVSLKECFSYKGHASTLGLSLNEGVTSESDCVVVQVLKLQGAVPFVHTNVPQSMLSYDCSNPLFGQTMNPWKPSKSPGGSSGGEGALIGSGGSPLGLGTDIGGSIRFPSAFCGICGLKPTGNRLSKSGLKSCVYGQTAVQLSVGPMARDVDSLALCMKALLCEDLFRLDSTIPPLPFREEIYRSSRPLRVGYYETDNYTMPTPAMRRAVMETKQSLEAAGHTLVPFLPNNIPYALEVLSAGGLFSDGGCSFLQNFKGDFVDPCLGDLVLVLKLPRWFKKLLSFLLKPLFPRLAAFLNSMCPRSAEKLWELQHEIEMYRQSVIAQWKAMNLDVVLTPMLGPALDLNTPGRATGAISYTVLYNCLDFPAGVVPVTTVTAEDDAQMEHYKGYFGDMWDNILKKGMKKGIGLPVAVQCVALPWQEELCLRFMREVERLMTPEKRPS
Briefly: [14C]AEA hydrolysis by N18TG2 cell membranes. The format is biochemical. The protocol: as §3
Accordingly, when the compounds were tested for their capability of inhibiting [^14C] […] This is in agreement with previous observations that Me-AEA, DMH-derivatives of AEA and arvanil are poor substrates for FAAH. The two exceptions were O-1856 and O-1895, which did inhibit the hydrolysis of [^14C] AEA, although not very potently.

Assay [3] concerns the target T3, CB1 receptors (Rattus norvegicus, UniProt P20272). The experiment in a line: CB1 receptor binding, displacement of [3H]CP-55,940 from rat brain P2 membranes (Example 2). As to conditions: CB1 (Ki, nM), rat brain membranes. Details: from tissue; host or cells: whole rat brain membranes. The protocol: as §1, §2
Another assay concerns mice. The experiment in a line: Mouse 'tetrad' of tests after i.v. administration (Example 2). Conditions: Mus musculus, iv.
Assay [4] addresses T3, CB1 receptors. The experiment in a line: Agonist-stimulated [35S]GTPγS binding, rat hippocampal membranes. Background: GTPγS is a poorly hydrolysed GTP analogue; its binding reports G protein activation.
For a further assay, the target named is human VR1 receptor (Homo sapiens, UniProt Q8NER1). The experiment in a line: Ca2+ influx (Fluo-3) in HEK-hVR1 cells (Example 2). It counts as cell-based. Details: expressed in transfected cells; host or cells: HEK 293 cells (HEK-hVR1). Conditions: for EC50: VR1 (EC50, nM), Ca2+ in HEK cells with human VR1; for VR1 efficacy: maximal concentration (usually 10 μM), percent of effect of 4 μM ionomycin. The protocol: N18TG2 and RBL-2H3 cells were grown as described in Melck et al, Bioch. Biophys. Res. Commun. 262:275-284 (1999). Ionomycin was purchased from Sigma. DMH-arvanil, and six substituted dimethylpentyl (DMP) derivatives of arvanil and met-AEA were synthesized as described in Example 1.
Chain of human VR1 receptor (Q8NER1 whole entry): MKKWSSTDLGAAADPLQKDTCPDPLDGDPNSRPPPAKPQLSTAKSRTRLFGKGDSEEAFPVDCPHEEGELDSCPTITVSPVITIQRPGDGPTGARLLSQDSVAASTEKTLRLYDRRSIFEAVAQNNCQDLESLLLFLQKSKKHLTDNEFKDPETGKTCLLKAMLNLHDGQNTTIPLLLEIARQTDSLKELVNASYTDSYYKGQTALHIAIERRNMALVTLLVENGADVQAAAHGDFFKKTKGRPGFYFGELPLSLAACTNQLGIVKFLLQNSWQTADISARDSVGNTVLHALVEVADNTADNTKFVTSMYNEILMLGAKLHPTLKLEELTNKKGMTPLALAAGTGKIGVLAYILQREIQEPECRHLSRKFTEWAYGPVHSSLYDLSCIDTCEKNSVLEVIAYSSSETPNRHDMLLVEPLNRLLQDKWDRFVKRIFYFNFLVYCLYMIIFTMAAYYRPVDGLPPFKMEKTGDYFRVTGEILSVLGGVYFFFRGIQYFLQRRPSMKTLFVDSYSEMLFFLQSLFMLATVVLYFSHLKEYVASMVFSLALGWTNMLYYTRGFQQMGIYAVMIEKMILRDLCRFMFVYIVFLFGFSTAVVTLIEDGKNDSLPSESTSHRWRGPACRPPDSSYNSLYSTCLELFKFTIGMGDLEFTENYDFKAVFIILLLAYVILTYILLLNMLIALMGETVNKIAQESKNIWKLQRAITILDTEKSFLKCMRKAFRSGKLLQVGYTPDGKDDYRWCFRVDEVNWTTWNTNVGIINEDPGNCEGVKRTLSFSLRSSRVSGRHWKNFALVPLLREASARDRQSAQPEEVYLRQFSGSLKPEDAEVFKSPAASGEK
HEK-hVR1 cells were prepared and loaded as described in De Petrocellis, et al., FEBS Lett. 483:52-56 (2000). Experiments were carried out by measuring fluorescence at 25° C. […] Capsazepine (1-5 μM) was added 30 minu. Before the test compounds.
as §2

Setting [5] is: determined in the presence of PMSF, [3H]CP 55,940, PMSF 100 μM.
[6] abbreviates: read-out: Average ED50 for the four effects.
[7] abbreviates: read-out: R.I. (relative immobility) ED50.
[8] abbreviates: read-out: R.T. (rectal temperature) ED50.
[9] abbreviates: read-out: S.A. (spontaneous activity) ED50.
Setting [10] is: read-out: T.F. (tail-flick) ED50.

Like-named read-outs stand apart in the source and are kept apart here.

T3 sequence (P20272 whole entry): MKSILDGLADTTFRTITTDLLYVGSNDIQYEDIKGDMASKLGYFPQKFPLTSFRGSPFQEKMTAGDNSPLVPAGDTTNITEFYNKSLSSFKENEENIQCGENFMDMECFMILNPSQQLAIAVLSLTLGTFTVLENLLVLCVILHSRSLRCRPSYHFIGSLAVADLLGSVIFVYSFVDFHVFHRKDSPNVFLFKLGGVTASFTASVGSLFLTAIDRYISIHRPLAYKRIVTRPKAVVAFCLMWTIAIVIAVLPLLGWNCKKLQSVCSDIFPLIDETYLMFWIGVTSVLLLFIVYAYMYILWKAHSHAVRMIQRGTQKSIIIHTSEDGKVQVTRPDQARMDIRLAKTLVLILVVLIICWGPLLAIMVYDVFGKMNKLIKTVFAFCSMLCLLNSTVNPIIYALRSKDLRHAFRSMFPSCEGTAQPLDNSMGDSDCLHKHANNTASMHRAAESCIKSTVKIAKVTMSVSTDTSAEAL

`COc1cc(CNC(=O)CCC/C=C\C/C=C\C/C=C\C/C=C\C(C)(C)CCCCBr)ccc1O` [Compound O-1861, 20-Bromo-16,16-dimethyl-eicosa-5,8,11,14-all-cis-tetraenoic acid (4-hydroxy-3-methoxy-benzyl) amide]: the Ki on CB2 receptors was > 10000 nM; on CB1 receptors [3] (setting [5]) it was 24.3 ± 2.6 nM; on CB1 receptors [3] ([3H]CP 55,940, without PMSF), 32.6 ± 1.2 nM. Moreover, the IC50 in assay [1] is 13500 nM; in assay [2] it was > 50000 nM. Also, the median effective dose (ED50) in the assay with mice (setting [6]) was 0.068 mg/kg; with mice (setting [7]) it was 0.055 mg/kg; with mice (setting [8]) it was 0.053 mg/kg; in the assay with mice (setting [9]) it was 0.06 mg/kg; with mice (setting [10]), 0.104 mg/kg. Further, the EC50 worked out at 70 nM at CB1 receptors [4] and 30 ± 0.2 nM on human VR1 receptor. For the same molecule, the Emax on CB1 receptors [4] (read-out: GTPγS binding (Emax)) came to 32%. This molecule also displayed a VR1 efficacy on human VR1 receptor of 74.0 ± 4.5%.

`COc1cc(CNC(=O)CCC/C=C\C/C=C\C/C=C\C/C=C\C(C)(C)CCCCC#N)ccc1O` [Compound O-1895, 20-Cyano-16,16-dimethyl-eicosa-5,8,11,14-all-cis-tetraenoic acid (4-hydroxy-3-methoxy-benzyl) amide]: the inhibition constant (Ki) was found to be 5000 ± 850 nM on CB2 receptors; 44.8 ± 8.3 nM on CB1 receptors [3] (setting [5]); 67 ± 7.5 nM at CB1 receptors [3] ([3H]CP 55,940, without PMSF). The values for the IC50 in assay [1] and in assay [2] were 38400 ± 3100 nM and 18000 ± 2700 nM, respectively. For the same molecule, the ED50 with mice (setting [6]) stood at 0.219 mg/kg; in the assay on mice (setting [7]) it was 0.168 mg/kg; in the assay on mice (setting [8]), 0.179 mg/kg; with mice (setting [9]) it was 0.265 mg/kg; in the assay with mice (setting [10]) it was 0.263 mg/kg. The 50% effective concentration (EC50) at human VR1 receptor amounted to 1 ± 0.2 nM. This molecule yielded a VR1 efficacy at human VR1 receptor of 83.1 ± 6.1%.
